Reference: PMC11231114 (EJNMMI Research, 2024)

Experiment: Ex vivo biodistribution after i.v. injection
Assay type: in vivo, Wistar rats
Experimental: Approximately 0.2 mL/31.1 MBq of compound was administered i.v. At established time points after injection (15 min, 30 min, 1 h, 2 h, 4 h and 6 h), the animals were euthanized by cervical dislocation and dissected. Selected organs and tissues were weighed, and their radioactivity was measured using a NaI(Tl) crystal gamma counter. The results were adjusted for the radioactive decay of ^18F. The physiological distribution was calculated and expressed in terms of the percentage of administrated dose found in each of the selected organs (%ID) or per gram of tissues/organ (%ID/g) with suitable standards of the injected dose.
The results of radiopharmaceutical uptake are presented as a percentage of the dose administered per gram of tissue (%ID/g) in the form of an average with standard deviation (%ID/g; mean ± standard deviation (SD)). Where applicable, statistical analysis was performed with one-way analysis of variance (ANOVA) using GraphPad Prism software (GraphPad Software, La Jolla, CA, USA).

[1] = 15 min after dosing, listed as [18F]SYN2

Compound: CN(C)c1ccc2cc3ccc(N(C)C)cc3[n+](CC[18F])c2c1 [[^18F]SYN2]
- Mean %ID, Brain (15 min after dosing): 0.23 (0.09) %ID
- Mean %ID, Heart (15 min after dosing): 2.15 (0.18) %ID
- Mean %ID, Intestine (15 min after dosing): 17.1 ± 1.8 %ID
- Mean %ID, Kidneys (15 min after dosing): 13.4 ± 4.0 %ID
- Mean %ID, Liver (15 min after dosing): 7.57 (0.96) %ID
- Mean %ID, Lungs (15 min after dosing): 3.88 (0.36) %ID
- Mean %ID, Pancreas (15 min after dosing): 1.33 (0.23) %ID
- Mean %ID, Rest of the body (15 min after dosing): 51.01 (2.66) %ID
- Mean %ID, Spleen (15 min after dosing): 1.01 (0.20) %ID
- Mean %ID, Stomach (15 min after dosing): 1.99 (0.68) %ID
- Mean %ID, Urine (15 min after dosing): 0.46 (0.31) %ID
- Mean %ID/g, Blood (15 min after dosing): 0.33 (0.04) %ID/g
- Mean %ID/g, Brain (15 min after dosing): 0.13 (0.15) %ID/g
- Mean %ID/g, Heart (15 min after dosing): 3.02 %ID/g
- Mean %ID/g, Intestine (15 min after dosing): 0.98 (0.10) %ID/g
- Mean %ID/g, Kidneys (15 min after dosing): 7.07 (1.77) %ID/g
- Mean %ID/g, Liver (15 min after dosing): 0.89 (0.14) %ID/g
- Mean %ID/g, Lungs (15 min after dosing): 3.04 (0.55) %ID/g
- Mean %ID/g, Muscle (15 min after dosing): 0.82 (0.13) %ID/g
- Mean %ID/g, Pancreas (15 min after dosing): 2.22 (0.24) %ID/g
- Mean %ID/g, Spleen (15 min after dosing): 1.96 (0.51) %ID/g
- Mean %ID/g, Stomach (15 min after dosing): 1.65 (0.94) %ID/g
- Mean %ID, Intestine [1]: 17.12 (1.81) %ID
- Mean %ID, Kidneys [1]: 13.35 (3.97) %ID
- Mean %ID, Brain (30 min after dosing): 0.19 (0.01) %ID
- Mean %ID, Heart (30 min after dosing): 2.19 (0.26) %ID
- Mean %ID, Intestine (30 min after dosing): 18.27 (1.40) %ID
- Mean %ID, Kidneys (30 min after dosing): 14.01 (3.78) %ID
- Mean %ID, Liver (30 min after dosing): 6.87 (1.10) %ID
- Mean %ID, Lungs (30 min after dosing): 2.64 (0.47) %ID
- Mean %ID, Pancreas (30 min after dosing): 0.97 (0.32) %ID
- Mean %ID, Rest of the body (30 min after dosing): 51.34 (1.73) %ID
- Mean %ID, Spleen (30 min after dosing): 0.79 (0.16) %ID
- Mean %ID, Stomach (30 min after dosing): 1.54 (0.12) %ID
- Mean %ID, Urine (30 min after dosing): 0.53 (0.25) %ID
- Mean %ID/g, Blood (30 min after dosing): 0.14 (0.02) %ID/g
- Mean %ID/g, Brain (30 min after dosing): 0.11 (0.00) %ID/g
- Mean %ID/g, Heart (30 min after dosing): 2.96 (0.49) %ID/g
- Mean %ID/g, Intestine (30 min after dosing): 1.29 (0.40) %ID/g
- Mean %ID/g, Kidneys (30 min after dosing): 7.22 (2.09) %ID/g
- Mean %ID/g, Liver (30 min after dosing): 0.74 (0.11) %ID/g
- Mean %ID/g, Lungs (30 min after dosing): 1.85 (0.24) %ID/g
- Mean %ID/g, Muscle (30 min after dosing): 0.46 (0.11) %ID/g
- Mean %ID/g, Pancreas (30 min after dosing): 1.75 (0.56) %ID/g
- Mean %ID/g, Spleen (30 min after dosing): 1.59 (0.41) %ID/g
- Mean %ID/g, Stomach (30 min after dosing): 1.11 (0.08) %ID/g
- heart/liver ratio (1 h, based on %ID/g): 7.0 ± 1.8
- heart/lungs ratio (1 h, based on %ID/g): 2.1 ± 0.2
- Mean %ID, Brain (1 h after dosing): 0.22 (0.12) %ID
- Mean %ID, Heart (1 h after dosing): 2.23 (0.11) %ID
- Mean %ID, Intestine (1 h after dosing): 20.18 (3.19) %ID
- Mean %ID, Kidneys (1 h after dosing): 12.91 (2.36) %ID
- Mean %ID, Liver (1 h after dosing): 3.66 (0.83) %ID
- Mean %ID, Lungs (1 h after dosing): 1.89 (0.23) %ID
- Mean %ID, Pancreas (1 h after dosing): 0.93 (0.01) %ID
- Mean %ID, Rest of the body (1 h after dosing): 46.30 (1.89) %ID
- Mean %ID, Spleen (1 h after dosing): 0.60 (0.10) %ID
- Mean %ID, Stomach (1 h after dosing): 1.84 (0.47) %ID
- Mean %ID, Urine (1 h after dosing): 1.59 (0.30) %ID
- Mean %ID/g, Blood (1 h after dosing): 0.08 (0.02) %ID/g
- Mean %ID/g, Brain (1 h after dosing): 0.12 (0.06) %ID/g
- Mean %ID/g, Heart (1 h after dosing): 3.0 ± 0.2 %ID/g
- Mean %ID/g, Intestine (1 h after dosing): 1.04 (0.18) %ID/g
- Mean %ID/g, Kidneys (1 h after dosing): 6.76 (1.23) %ID/g
- Mean %ID/g, Liver (1 h after dosing): 0.45 (0.11) %ID/g
- Mean %ID/g, Lungs (1 h after dosing): 1.42 (0.15) %ID/g
- Mean %ID/g, Muscle (1 h after dosing): 0.58 (0.18) %ID/g
- Mean %ID/g, Pancreas (1 h after dosing): 1.63 (0.16) %ID/g
- Mean %ID/g, Spleen (1 h after dosing): 1.15 (0.23) %ID/g
- Mean %ID/g, Stomach (1 h after dosing): 1.33 (0.33) %ID/g
- Mean %ID/g, Heart (1 h after dosing, listed as [18F]SYN2): 2.99 (0.20) %ID/g
- heart/blood ratio (1 h post-injection): 37
- Mean %ID, Brain (2 h after dosing): 0.12 (0.01) %ID
- Mean %ID, Heart (2 h after dosing): 2.03 (0.23) %ID
- Mean %ID, Intestine (2 h after dosing): 25.93 (2.92) %ID
